# Entries after “also recorded” stand apart in the source; their conditions may differ.
# Assays:
# [1] = tested on: IL-6, IL-8, TNF-α, and MCP-1; experiment: Flow cytometry assay of cytokine production in HCA; type: cell-based, human; details: 20 μM compound, 10 ng/mL IL1-β
# Description: Flow cytometry. For each well of HCA in a 6-well plate, 2 mL of fresh media with GolgiPLUG (BD #555029, 1:1000) and GolgiSTOP (BD #554724, 1:1000) with 20 μM compound or vehicle (DMSO) and IL1b 10 ng/mL or DPBS was added. The cells were incubated for 5 h at 37° C. Cells were collected with TrypLE and plated into a 96-well V-bottom plate for staining. The plate was centrifuged for 5 min, 1300 rpm, 4° C. to pellet cells, which were subsequently resuspended in 100 μL DPBS with 1 μL Zombie Violet (Biolegend #4231 13) and 5 μL Human Trustain FC block (Biolegend #422302) per well for 15 min at room temperature in the dark. The plate was centrifuged, supernatant was aspirated, and the cells were washed with 100 μL/well DPBS. Cells were fixed with 100 μL/well of Cytofix/Cytoperm (BD) for 20 min at 4° C. The plate was centrifuged, supernatant was aspirated, and cells were resuspended in 100 μL Permwash (BD) and incubated for 15 min at 4° C. The plate was centrifuged, supernatant was aspirated, and cells were incubated with 100 μL/well of Ab mix or isotype mix in Permwash (see below) for 20 min at 4° C., followed by centrifugation and 2× PermWash washes. The cells were resuspended in 100 μL DPBS and transferred to FACS tubes containing 200 ul of PBS (total volume per tube 300 μL) for analysis on FACS Analyzers (LSRII or Fortessa).
# A flow cytometry-based assay was used to assess the anti-inflammatory activity of several natural flavonoid compounds (FIG. 1A) and build corresponding structure-activity relationships. Primary human cerebellar astrocytes (HCA) were co-treated with 20 μM of each compound or vehicle (DMSO), 10 ng/mL IL1-β, and a protein transport inhibitor for 6 hours, and then processed for intracellular staining of pro-inflammatory cytokines IL-6, IL-8, TNF-α, and MCP-1. The presence of a C2-C3 double bond was the predominant determining factor for anti-inflammatory activity. […] There was no cytotoxicity associated with flavone treatment (FIG. 1E).
# [2] = tested on: phosphorylated NF-κB; experiment: pNF-κB immunoblot in AD patient-derived astrocytes; type: cell-based, human; details: 5 h treatment
# [3] = tested on: IL-6 and TNFAIP2; experiment: IL-6 and TNFAIP2 induction in AD patient-derived astrocytes; type: cell-based, human; details: IL1-β
# [4] = tested on: tau phosphorylation; experiment: Tau phosphorylation in induced neurons (iNs); type: cell-based; details: FIG. 14
# [5] = biological target: CK2α1 (Homo sapiens, UniProt P68400); experiment: Thermal shift assay followed by Western blotting; type: binding; parameters: endogenous in cells; details: astrocyte lysates
# Description: Thermal shift assay and TPP. Experiments were performed as previously described (Franken et al., Nature Protocols 2015, 10:1567-1593; Reinhard et al., Nature Methods 2015, 12:1129-1131). 45 million H1-derived astrocytes were activated with 10 ng/mL IL1b for 6 h, dissociated with 1:1 Accutase/papain (3 min rt), and centrifuged at 1,800 rpm for 2 min at 4 C. The pellet was washed twice with 10 mL cold DPBS, lysed in 2.25 mL DPBS and 0.4% v/v NP-40 by freeze-thawing 3×, and clarified by centrifugation (20,000 g, 30 min, 4° C.). Protein concentration was determined by BCA assay (Bio-Rad), and lysates were diluted to 2 mg/mL. […] Reactions were incubated at rt for 30 min, after which each treated extract was divided into 10 aliquots of 95 μL in PCR strip tubes and stored on ice. Each group of treated samples was heated for 3 min at predesignated temperatures (3×10 temperatures), then kept for 3 min at rt before ultracentrifugation (20 min at 4° C., 100,000 g) in 200 μL polycarbonate tubes (Beckman Coulter #343775). Designated temperatures were 37, 41.1, 43.6, 46.9, 50, 53.7, 56, 59.5, 63, and 67° C. A small aliquot (5 μL) of supernatant was saved for Western blotting, and the rest was snap frozen at −80 C and submitted for LC-MS/MS.
# Chain of CK2α1 (P68400 whole entry): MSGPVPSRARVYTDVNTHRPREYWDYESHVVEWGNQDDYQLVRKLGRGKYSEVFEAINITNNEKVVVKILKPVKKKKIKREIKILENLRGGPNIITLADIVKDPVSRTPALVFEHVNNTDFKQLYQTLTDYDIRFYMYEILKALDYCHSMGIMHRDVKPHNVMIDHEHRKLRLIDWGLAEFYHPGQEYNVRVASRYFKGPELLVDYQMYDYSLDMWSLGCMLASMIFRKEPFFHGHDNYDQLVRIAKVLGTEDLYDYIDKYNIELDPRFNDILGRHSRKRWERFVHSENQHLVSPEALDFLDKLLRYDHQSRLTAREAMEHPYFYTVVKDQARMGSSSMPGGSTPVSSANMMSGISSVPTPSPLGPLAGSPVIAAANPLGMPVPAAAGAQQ
smiles,measurement,setting,value
"COc1cc(-c2cc(=O)c3c(O)cc(O)cc3o2)ccc1O [CHR, Chrysoeriol]","IL1-β-induced IL-6, IL-8, TNF-α, MCP-1 cytokine upregulation",[1],active; also recorded: strong suppressive activity
same,Elevated phosphorylated NF-κB in AD astrocytes,[2],reduced
same,Hyperinflammatory phenotype (IL-6 and TNFAIP2 induction),[3],mitigated
same,Tau phosphorylation,[4],reduces
same,Thermal stabilization of CK2α1,[5],dose-dependently stabilized

# From patent publication US20260199350A1, “FLAVONES, QUINOLINONES, QUINAZOLINONES, AND AURONES, AND USES IN CK2-MEDIATED DISEASES” (Salk Institute for Biological Studies, priority 2022, published 2026)
